* marks the point of attachment. Palmitoyl = CCCCCCCCCCCCCCCC(=O)*
Key:
[1] = tested on: HUVECs; experiment: HUVEC survival after serum-starvation (Annexin V-PE apoptosis); type: cell-based, human; conditions: 1 μM in EBM, serum-starvation 24 hours; untreated 31.7%
Procedure: To evaluate cell survival, endothelial basal media (EBM) without growth factors (Lonza) was used to induce a serum-starvation. Cells were plated in 12 well plates and grown to confluence with standard growth media. […] Cells were grown in these conditions for 24 hours. Survival was quantified using Annexin V: PE staining with 7-AAD vital staining (BD Biosciences) following provided assay instructions and analyzed on a DakoCytomation CyAn. Survival was assessed by determining the fraction of cells that were apoptotic (Annexin V-PE positive).

[2] = target: T1, VEGF receptor 2 (VEGFR2 or KDR) (Homo sapiens, UniProt P35968); experiment: Sandwich ELISA of phosphorylated VEGFR2 in lysates of stimulated HUVEC; type: cell-based; conditions: HUVEC, 1 μM, 2 minutes exposure; untreated control 1.000±0.109
T1 construct: host or cells: HUVEC
Procedure: Human umbilical vein endothelial cells (HUVECs) and complete endothelial cell growth media (EGM) were purchased (Genlantis, San Diego, Calif.), passaged two times following receipt, and cryo-preserved in media with 5% DMSO. Cells were thawed as needed and grown to confluence in a […] flasks (VWR Falcon) prior to plating for experiments.
Phosphorylation of both VEGFRI and VEGFR2 was assayed using commercially available assay kit (R&D Systems, Minneapolis, Minn.) following the recommended protocol. First, confluent HUVECs plated in 24 well plates were starved for 5 hours in serum-free defined media (SFDM, Genlantis) specifically designed to maintain cells in a growth factor-free setting for growth factor signaling and metabolic assays. Following starvation, the various treatments were dissolved in SFDM to a concentration of 1 μM. […] Cells were exposed to treatment for 2 minutes. To evaluate the time-course of phosphorylation the same protocol was followed and cells were exposed to VEGF-PA for 0, 1, 3, 5, 10, 15, 20, 25, 30, 40, 50, and 60 minutes.

[3] = tested on: ischemic hind-limb; experiment: Murine hind-limb ischemia (HLI) model; type: in vivo, mice; conditions: for limb motor function score / tissue (limb) salvage score: single i.m. injection 25 μl of 2 mM; for limb motor function score: grade 1-5; for tissue (limb) salvage score: grade 1-6; for Rota Rod walking time prior to failure: saline 90.4 seconds; for number of CD31+ capillaries in ischemic limb muscle: tissue harvested at day 28, saline 893/mm2
Procedure: For the HLI procedure, eight week old male FVB wild-type mice (Charles River) were anesthetized by intraperitoneal injection of avertin (125 mg/kg). By means of a dissecting microscope, the femoral nerve was carefully separated from the vessel bundle. The right femoral artery was ligated and excised, including all superficial and deep branches. Critical limb ischemia was immediately verified by laser Doppler imaging (LDPI, MoorLDI-SIM, Moor Instruments, Ltd) to ensure the ratio (ischemic/non-ischemic limb) was ≦0.20. At postoperative day 3, outliers with low ischemia were triaged based on LDPI (ratio ischemic/nonischemic 0.30) as were outliers with extreme ischemia (necrotic demarcation of entire limb), determined by macroscopic evaluation. […] For follow-up, animals underwent reevaluations with LDPI at postoperative day 7, 14, and 28 before animals were sacrificed (CO, asphyxia) for tissue harvest at day 28. At each time-point, tissue perfusion was measured via LDPI, measuring blood flow in both the ischemic and non-ischemic limb and reporting results as the ratio of these two measurements. All LDPI measurements were taken on a 37° C. heating pad to control body temperature. In addition, motor function and tissue damage was semi-quantitatively assessed on post-operative day 7, 14, 21 and 28 by established scoring systems. Tissue damage in the ischemic limb (limb salvage score) was graded as full recovery (grade 6), minor necrosis or nail loss (grade 5), partial toe amputation (grade 4), total toe amputation (grade 3), partial/total foot amputation (grade 2) or partial/total limb amputation (grade 1) (modified from). Limb motor function was graded as unrestricted (grade 5), no active use of toe(s) or spreading (grade 4), restricted foot use (grade 3), no use of foot (grade 2) or no use of limb at all (grade 1) (modified from). Finally, walking capacity was measured via a Rota Rod apparatus. […] The mean of two assessments was used as for failure time for each animal. At day 28, muscle tissue from the ischemic limb was harvested, fixed in methanol, paraffin-embedded, and cross-sectioned (6-μm) for histological immunostaining. Briefly, sections were blocked with 10% donkey serum (30 min, RT). Primary antibodies were diluted in PBS containing BSA, and applied to tissue slices for 2 hrs at 37° C. Sections were stained for CD31, an endothelial-specific marker, using rat anti-CD31 antibodies (BD Pharmingen Inc) and smooth-muscle α-actin (αSMA), a vascular smooth muscle marker, using rabbit-anti-αSMA (Sigma-Aldrich Co.). For immunofluorescent detection, primary antibodies were resolved with Alexa-Fluor-conjugated secondary antibodies (Invitrogen Corporation, Carlsbad, Calif., USA dilution) and nuclei were counterstained with DAPI (Research Organics). Slides were imaged using fluorescent microscopy (Zeiss), and CD31+capillary forms and CD31+/sMA+]mature microvessels/arterioles were quantified in 3 separate high-power fields (20×) from 3 independent sections in each animal (9 images/animal). All error bars indicate the standard error of the mean. Differences between groups were determined using a one-way analysis of variance (ANOVA) with a Bonferroni multiple comparisons post-hoc test using GraphPad InStat v3.0b. […] VEGF-PA or control treatments were administered by an intramuscular injection three days following the induction of critical ischemia by ligation and excision of the right femoral artery and all superficial and deep branches, as described above. Animals were assessed serially throughout the study for motor function and limb salvage and Laser Doppler perfusion imaging (LDPI) was used to assess tissue perfusion. At the end of the study, exercise endurance was recorded on a Rota Rod treadmill and tissue was harvested for immunohistological staining of capillaries to observe effects on the microcirculation.

[4] = tested on: HUVECs; experiment: HUVEC migration scratch assay; type: cell-based, human; conditions: 1 μM in EBM with 0.5% FBS, 18 hours; untreated 25.2%
Procedure: To evaluate cell migration, endothelial basal media (EBM) without growth factors (Lonza) was supplemented with 0.5% FBS in order to prevent apoptosis but not promote significant migration or proliferation. Cells were grown to confluence in a 12 well plate and a 1 ml pipette tip was used to create a denuded scratch and the surface was washed twice with PBS to remove detached cells. The average scratch width at the initial time-point was […] Markings were placed on the underside of the plate to ensure the same region of the scratch was recorded in each image. […] The total pixel area of the scratch at the initial time-point was recorded using ImageJ analysis software, and the percent migration was determined from the reduction in denuded area at 18 hours.

[5] = tested on: HUVECs; experiment: HUVEC proliferation (CyQUANT-NF cell number); type: cell-based, human; conditions: 1 μM in EGM, 48 hours; untreated control 100.0%
Procedure: In vitro studies were performed using HUVECs, a primary endothelial cell that is VEGF-responsive and frequently used as a model endothelial cell for angiogenesis studies in vitro [31].
To evaluate proliferation, HUVECs were plated at 5000 per well in a 96 well plate. […] Additionally, unsupplemented growth media was used as a control. After 48 hours, cell number was quantified using CyQUANT-NF (Invitrogen) and a standard fluorescent microplate reader. Cell number is expressed relative to the group treated with unsupplemented growth media.

[6] = tested on: chicken chorioallantoic membrane (CAM); experiment: Shell-less chicken chorioallantoic membrane (CAM) angiogenesis assay; type: in vivo; conditions: 2 mM in PBS dried on coverslip, three days following treatment; saline 132%
From the text: An established assay reflecting in vivo angiogenesis, the chicken chorioallantoic membrane (CAM) assay, was used to evaluate the angiogenic potential of the VEGF-PA of the present examples. This assay utilizes the extra-embryonic allantois, a tissue derived from the mesoderm that develops into a densely vascularized membrane. A common deviation from the traditional assay is to remove the shell and conduct the assay on a shell-less embryo, termed the shell-less CAM assay, as we have performed here. Fertilized white leghorn chicken eggs (Phil's Fresh Eggs, Forreston, Ill.) were received and cultured in a temperature controlled, humidified egg incubator. On embryonic day 3, eggs were cracked within a sterile tissue culture hood into round 100 mm petri dishes. Fertilized embryos were then transferred to a water-jacketed CO2 incubator, set to 37.5° C., 1% CO2 and 100% relative humidity. On embryonic day 10, the material treatment was dissolved at 2 mM in PBS, evaporated onto the surface of a 5 mm round glass cover slip, and placed facing down on top of the CAM (n=16/group). Digital images were captured through the eyepiece of a Nikon stereomicroscope and vessel density was quantified by the number of intersections of vessel structures with the edge of the cover slip and expressed relative to the initial time-point. Images were captured daily, beginning at embryonic day 10 and culminating on embryonic day 13, the standard range over which the CAM assay is performed. Additionally, images were assessed qualitatively for morphological differences in the CAM vasculature including spoking, branching and leakage.

[7] = target: VEGF receptor 1 (human, UniProt P17948 27-1338); experiment: cell-based or functional assay
[8] = 14 days after induction of ischemia

VEGF receptor 1, sequence (P17948 27-1338): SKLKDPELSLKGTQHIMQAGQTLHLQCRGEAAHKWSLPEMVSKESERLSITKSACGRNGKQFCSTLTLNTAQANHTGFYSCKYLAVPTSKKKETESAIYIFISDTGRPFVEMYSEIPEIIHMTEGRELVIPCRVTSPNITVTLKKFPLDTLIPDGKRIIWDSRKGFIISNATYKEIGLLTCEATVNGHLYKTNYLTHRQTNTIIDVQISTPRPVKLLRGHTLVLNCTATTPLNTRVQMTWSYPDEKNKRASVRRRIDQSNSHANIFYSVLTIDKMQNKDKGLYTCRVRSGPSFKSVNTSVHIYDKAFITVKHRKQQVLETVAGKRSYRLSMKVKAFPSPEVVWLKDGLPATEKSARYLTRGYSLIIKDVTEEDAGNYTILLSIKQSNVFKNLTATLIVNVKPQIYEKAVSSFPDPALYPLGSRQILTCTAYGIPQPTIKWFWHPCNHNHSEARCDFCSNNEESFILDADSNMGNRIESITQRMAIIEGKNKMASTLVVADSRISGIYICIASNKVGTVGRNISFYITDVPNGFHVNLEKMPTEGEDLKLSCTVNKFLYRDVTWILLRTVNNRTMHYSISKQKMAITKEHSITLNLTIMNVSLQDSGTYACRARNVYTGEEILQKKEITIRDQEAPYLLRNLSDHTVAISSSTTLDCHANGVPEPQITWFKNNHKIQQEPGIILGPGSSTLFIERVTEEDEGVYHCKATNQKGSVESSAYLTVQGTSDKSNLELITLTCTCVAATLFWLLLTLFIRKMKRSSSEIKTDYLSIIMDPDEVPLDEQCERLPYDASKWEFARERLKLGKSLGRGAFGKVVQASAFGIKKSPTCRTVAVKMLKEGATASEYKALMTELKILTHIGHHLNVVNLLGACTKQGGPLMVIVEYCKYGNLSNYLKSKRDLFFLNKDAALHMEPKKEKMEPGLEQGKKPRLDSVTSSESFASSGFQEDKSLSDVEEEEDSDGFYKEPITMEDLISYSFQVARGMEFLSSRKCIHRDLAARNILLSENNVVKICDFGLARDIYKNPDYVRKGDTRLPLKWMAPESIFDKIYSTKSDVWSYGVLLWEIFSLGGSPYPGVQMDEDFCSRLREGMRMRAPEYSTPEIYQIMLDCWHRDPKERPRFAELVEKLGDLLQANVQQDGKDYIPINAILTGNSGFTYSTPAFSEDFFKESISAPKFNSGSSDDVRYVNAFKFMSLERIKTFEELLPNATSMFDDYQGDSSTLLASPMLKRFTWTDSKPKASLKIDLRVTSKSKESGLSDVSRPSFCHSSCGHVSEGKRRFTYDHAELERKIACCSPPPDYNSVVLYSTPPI
T1 sequence (P35968 20-1356): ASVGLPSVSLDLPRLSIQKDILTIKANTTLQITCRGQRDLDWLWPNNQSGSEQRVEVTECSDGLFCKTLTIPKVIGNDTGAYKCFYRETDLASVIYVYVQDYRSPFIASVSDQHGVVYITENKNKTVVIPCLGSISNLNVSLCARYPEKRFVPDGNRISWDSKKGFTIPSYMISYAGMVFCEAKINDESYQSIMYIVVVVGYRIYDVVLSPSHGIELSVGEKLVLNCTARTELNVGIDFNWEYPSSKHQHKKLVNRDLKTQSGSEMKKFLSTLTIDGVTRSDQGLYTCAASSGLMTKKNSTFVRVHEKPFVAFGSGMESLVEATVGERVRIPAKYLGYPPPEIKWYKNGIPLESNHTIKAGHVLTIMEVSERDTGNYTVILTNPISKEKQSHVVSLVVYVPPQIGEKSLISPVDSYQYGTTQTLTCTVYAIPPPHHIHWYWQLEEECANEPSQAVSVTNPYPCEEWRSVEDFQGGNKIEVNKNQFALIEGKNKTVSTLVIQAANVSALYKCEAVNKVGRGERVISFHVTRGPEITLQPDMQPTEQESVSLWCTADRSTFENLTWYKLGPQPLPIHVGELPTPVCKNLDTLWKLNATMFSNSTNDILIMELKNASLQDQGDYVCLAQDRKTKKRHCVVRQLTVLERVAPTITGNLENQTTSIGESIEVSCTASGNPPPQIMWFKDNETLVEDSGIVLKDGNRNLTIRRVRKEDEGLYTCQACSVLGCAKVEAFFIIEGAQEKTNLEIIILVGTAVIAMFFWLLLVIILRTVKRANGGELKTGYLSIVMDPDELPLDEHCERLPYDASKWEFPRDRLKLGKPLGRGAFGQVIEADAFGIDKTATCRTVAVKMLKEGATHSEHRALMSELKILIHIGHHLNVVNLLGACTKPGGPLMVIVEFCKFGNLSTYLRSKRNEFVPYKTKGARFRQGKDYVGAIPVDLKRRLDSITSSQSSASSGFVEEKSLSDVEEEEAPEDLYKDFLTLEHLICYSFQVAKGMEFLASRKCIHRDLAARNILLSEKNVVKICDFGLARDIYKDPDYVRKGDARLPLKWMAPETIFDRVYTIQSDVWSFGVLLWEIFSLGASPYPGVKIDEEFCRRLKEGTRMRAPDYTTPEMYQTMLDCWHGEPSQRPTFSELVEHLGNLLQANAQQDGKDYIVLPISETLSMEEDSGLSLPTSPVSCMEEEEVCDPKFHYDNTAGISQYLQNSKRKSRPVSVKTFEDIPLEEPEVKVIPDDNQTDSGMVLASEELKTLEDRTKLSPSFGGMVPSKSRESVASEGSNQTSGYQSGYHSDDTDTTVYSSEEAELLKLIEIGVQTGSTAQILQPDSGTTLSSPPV

Molecule: Ac-KLTWQELYQLKYKGI-NH2 [VEGF peptide]
- fraction of apoptotic cells (Annexin V-PE positive) [1]: 23.4%±1.1%
- VEGFR2 phosphorylation level relative to untreated control [2]: 1.343±0.050
- LDPI perfusion ratio (ischemic/non-ischemic limb) [3, 8]: 0.54±0.06
- limb motor function score ([3]; day 21): 3.41±0.21
- tissue (limb) salvage score ([3]; day 21): 3.45±0.25
- LDPI perfusion ratio (ischemic/non-ischemic limb) ([3]; day 28): 0.52±0.06
- Rota Rod walking time prior to failure ([3]; day 28): 115.6 ± 10.9 s
- limb motor function score ([3]; day 28): 3.50±0.17
- tissue (limb) salvage score ([3]; day 28): 3.45±0.25
- number of CD31+ capillaries in ischemic limb muscle [3]: 949±48 /mm2
- reduction in scratch wound size (denuded area) [4]: 52.5%±4.1%
- proliferation (cell number relative to unsupplemented growth media) [5]: 98.4%±0.7%
- blood vessels relative to the initial value [6]: 139%±11%

Molecule: CH3(CH2)14C(O)—VVAAKKKGKLTAQELVFLKVKGI-NH2 (Palmitoyl-VVAAKKKGKLTAQELVFLKVKGI-NH2; SMILES CCCCCCCCCCCCCCCC(=O)N[C@H](C(=O)N[C@H](C(=O)N[C@@H](C)C(=O)N[C@@H](C)C(=O)N[C@@H](CCCCN)C(=O)N[C@@H](CCCCN)C(=O)N[C@@H](CCCCN)C(=O)NCC(=O)N[C@@H](CCCCN)C(=O)N[C@@H](CC(C)C)C(=O)N[C@H](C(=O)N[C@@H](C)C(=O)N[C@@H](CCC(N)=O)C(=O)N[C@@H](CCC(=O)O)C(=O)N[C@@H](CC(C)C)C(=O)N[C@H](C(=O)N[C@@H](Cc1ccccc1)C(=O)N[C@@H](CC(C)C)C(=O)N[C@@H](CCCCN)C(=O)N[C@H](C(=O)N[C@@H](CCCCN)C(=O)NCC(=O)N[C@H](C(N)=O)[C@@H](C)CC)C(C)C)C(C)C)[C@@H](C)O)C(C)C)C(C)C) [mutant PA]
- fraction of apoptotic cells (Annexin V-PE positive) [1]: 24.2%±1.1%
- VEGFR2 phosphorylation level relative to untreated control [2]: 1.001±0.103
- LDPI perfusion ratio (ischemic/non-ischemic limb) [3, 8]: 0.42±0.05
- limb motor function score ([3]; day 21): 2.86±0.14
- tissue (limb) salvage score ([3]; day 21): 3.14±0.26
- LDPI perfusion ratio (ischemic/non-ischemic limb) ([3]; day 28): 0.48±0.05
- Rota Rod walking time prior to failure ([3]; day 28): 106.7 ± 17.6 s
- limb motor function score ([3]; day 28): 3.29±0.18
- tissue (limb) salvage score ([3]; day 28): 3.43±0.37
- number of CD31+ capillaries in ischemic limb muscle [3]: 954±81 /mm2
- reduction in scratch wound size (denuded area) [4]: 30.0%±7.3%
- proliferation (cell number relative to unsupplemented growth media) [5]: 101.8%±1.4%
- blood vessels relative to the initial value [6]: 149%±8%

Molecule: Native VEGF (from UniProt P15692 27-191) (ligand)
- amount of phosphorylated VEGFR1 relative to untreated control (sandwich ELISA on HUVEC lysates, 100 ng/ml, 2 min) (fold of untreated control) [7]: 1.31

Molecule: Ac-KLTWQELYQLKYKGI-NH2 [VEGF peptide (Ac-KLTWQELYQLKYKGI-NH2)]
- amount of phosphorylated VEGFR1 relative to untreated control (sandwich ELISA on HUVEC lysates, 1 uM, 2 min) [7]: 1.33 fold of untreated control

B1: VEGF-PA (CH3(CH2)14C(O)-VVAAKKKGKLTWQELYQLKYKGI-NH2) (peptide)
peptide: Palmitoyl-VVAAKKKGKLTWQELYQLKYKGI-NH2
SMILES: CCCCCCCCCCCCCCCC(=O)N[C@H](C(=O)N[C@H](C(=O)N[C@@H](C)C(=O)N[C@@H](C)C(=O)N[C@@H](CCCCN)C(=O)N[C@@H](CCCCN)C(=O)N[C@@H](CCCCN)C(=O)NCC(=O)N[C@@H](CCCCN)C(=O)N[C@@H](CC(C)C)C(=O)N[C@H](C(=O)N[C@@H](Cc1c[nH]c2ccccc12)C(=O)N[C@@H](CCC(N)=O)C(=O)N[C@@H](CCC(=O)O)C(=O)N[C@@H](CC(C)C)C(=O)N[C@@H](Cc1ccc(O)cc1)C(=O)N[C@@H](CCC(N)=O)C(=O)N[C@@H](CC(C)C)C(=O)N[C@@H](CCCCN)C(=O)N[C@@H](Cc1ccc(O)cc1)C(=O)N[C@@H](CCCCN)C(=O)NCC(=O)N[C@H](C(N)=O)[C@@H](C)CC)[C@@H](C)O)C(C)C)C(C)C
- amount of phosphorylated VEGFR1 relative to untreated control (sandwich ELISA on HUVEC lysates, 1 uM, 2 min) [7]: 1.63 fold of untreated control

B2: mutant PA (CH3(CH2)14C(O)-VVAAKKKGKLTAQELVFLKVKGI-NH2) (peptide)
peptide: Palmitoyl-VVAAKKKGKLTAQELVFLKVKGI-NH2
SMILES: CCCCCCCCCCCCCCCC(=O)N[C@H](C(=O)N[C@H](C(=O)N[C@@H](C)C(=O)N[C@@H](C)C(=O)N[C@@H](CCCCN)C(=O)N[C@@H](CCCCN)C(=O)N[C@@H](CCCCN)C(=O)NCC(=O)N[C@@H](CCCCN)C(=O)N[C@@H](CC(C)C)C(=O)N[C@H](C(=O)N[C@@H](C)C(=O)N[C@@H](CCC(N)=O)C(=O)N[C@@H](CCC(=O)O)C(=O)N[C@@H](CC(C)C)C(=O)N[C@H](C(=O)N[C@@H](Cc1ccccc1)C(=O)N[C@@H](CC(C)C)C(=O)N[C@@H](CCCCN)C(=O)N[C@H](C(=O)N[C@@H](CCCCN)C(=O)NCC(=O)N[C@H](C(N)=O)[C@@H](C)CC)C(C)C)C(C)C)[C@@H](C)O)C(C)C)C(C)C
- amount of phosphorylated VEGFR1 relative to untreated control (sandwich ELISA on HUVEC lysates, 1 uM, 2 min) [7]: 0.931 fold of untreated control
